Measurements: patent US8785463B2, “GPR 119 agonists” (Cadila Healthcare Limited, priority 2010, dated 2014)

Biological target: T1, human GPR 119 receptor (Homo sapiens, UniProt Q8TDV5)
T1 construct: expressed in transfected cells
T1 sequence (Q8TDV5 1-335): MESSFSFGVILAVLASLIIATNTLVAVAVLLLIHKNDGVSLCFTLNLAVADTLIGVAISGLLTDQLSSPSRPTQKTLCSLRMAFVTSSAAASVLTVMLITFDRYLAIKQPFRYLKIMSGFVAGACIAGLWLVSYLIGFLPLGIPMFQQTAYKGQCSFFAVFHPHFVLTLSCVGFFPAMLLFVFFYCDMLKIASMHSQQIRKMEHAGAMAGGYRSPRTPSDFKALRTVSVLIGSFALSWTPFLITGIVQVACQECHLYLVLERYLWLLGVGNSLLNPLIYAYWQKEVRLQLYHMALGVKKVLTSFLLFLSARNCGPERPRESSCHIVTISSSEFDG
Assay: cAMP assay in stable cell line expressing recombinant human GPR 119 receptor
Type: cell-based
Details: DMSO = 1
Source text: A stable cell line expressing recombinant human GPR 119 receptor was established and used to investigate the efficacy of the compounds of the invention based on the intracellular levels of cyclic AMP (cAMP) using commercially available cAMP kits.

SMILES	Fold increase in cyclic AMP with respective to DMSO (10 nM compound) [fold]	Fold increase in cyclic AMP with respective to DMSO (100 nM compound) [fold]	Fold increase in cyclic AMP with respective to DMSO (1 uM compound) [fold]
COC(=O)N1CCC(Oc2cc(Oc3cccc(/C=C4\SC(=O)NC4=O)c3)ncn2)CC1 [Example 36, (Z)-Methyl 4-((6-(3-((2,4-dioxothiazolidin-5-ylidene)methyl)phenoxy)pyrimidin-4-yl)oxy)piperidine-1-carboxylate]	0.80	1.38	2.19
CCc1cnc(N2CCC(Oc3cc(Oc4cccc(/C=C5\SC(=O)NC5=O)c4)ncn3)CC2)nc1 [Example 55]	1.18	2.86	4.77
O=C1NC(=O)/C(=C/c2cccc(Oc3cc(OC4CCN(C(=O)OCc5ccccc5)CC4)ncn3)c2)S1 [Example 29, (Z)-Benzyl 4-((6-(3-((2,4-dioxothiazolidin-5-ylidene)methy 1)phenoxy)pyrimidin-4-yl)oxy)piperidine-1-carboxylate]	2.09	3.66	8.17
CC(C)COC(=O)N1CCC(Oc2cc(Oc3ccc(/C=C4\SC(=O)NC4=O)cc3)ncn2)CC1 [Example 53, (Z)-Isobutyl 4-((6-(4-((2,4-dioxothiazolidin-5-ylidene)methyl)phenoxy)pyrimidin-4-yl)oxy)piperidine-1-carboxylate]	0.99	1.79	3.59
COC(=O)N1CCC(Oc2cc(Oc3ccc(/C=C4\SC(=O)NC4=O)cc3)ncn2)CC1 [Example 35, (Z)-Methyl 4-((6-(4-((2,4-dioxothiazolidin-5-ylidene)methyl)phenoxy)pyrimidin-4-yl)oxy)piperidine-1-carboxylate]	0.56	0.57	0.96
O=C1NC(=O)/C(=C/c2cccc(Oc3cc(OC4CCN(Cc5ccccc5)CC4)ncn3)c2)S1 [Example 39, (Z)-5-(3-((6-((1-Benzylpiperidin-4-yl)oxy)pyrimidin-4-yl)oxy)benzylidene)thiazolidine-2,4-dione]	0.85	1.38	2.20
Cc1c(Oc2cccc(/C=C3\SC(=O)NC3=O)c2)ncnc1OC1CCN(c2nc(C(C)C)no2)CC1 [Example 25, (Z)-5-(3-((6-((1-(3-Isopropyl-1,2,4-oxadiazol-5-yl)piperidin-4-yl)oxy)-5-methylpyrimidin-4-yl)oxy)benzylidene)thiazolidine-2,4-dione]	3.32	5.81	1.39
CCN1C(=O)S/C(=C\c2ccc(Oc3cc(OC4CCN(C(=O)OC(C)(C)C)CC4)ncn3)cc2)C1=O [Example 31, (Z)-tert-Butyl 4-((6-(4-((3-ethyl-2,4-doxothiazolidin-5-ylidene)methyl)phenoxy)pyrimidin-4-yl)oxy)piperidine-1-carboxylate]	1.06	2.27	3.66
O=C1NC(=O)/C(=C/c2ccc(Oc3cc(OC4CCN(C(=O)OCc5ccccc5)CC4)ncn3)cc2)S1 [Example 30, (Z)-Benzyl 4-((6-(4-((2,4-dioxothiazolidin-5-ylidene)methyl)phenoxy)pyrimidin-4-yl)oxy)piperidine-1-carboxylate]	2.29	3.59	7.4
